According to US10526314B2, “Hydroxyalkyl-substituted heteroaryltriazole derivatives and uses thereof” (BAYER AKTIENGESELLSCHAFT, priority 2016, dated 2020):

Experiments:
human V1a receptor = molecular target: T1, human V1a receptor (Homo sapiens, UniProt P37288); assay: Cellular in vitro assay for determining vasopressin receptor activity (V1a, aequorin luminescence); format: cell-based; settings: for IC50: CHO cell line transfected with human V1a receptor, [Arg8]-vasopressin at EC50 concentration, read-out: IC50 hV1a; for ratio IC50 hV2/hV1a: selectivity ratio IC50 hV2 / IC50 hV1a
T1 construct: expressed in transfected cells; host or cells: CHO K1 (ATCC), also stably transfected with a modified aequorin
Protocol: (§1) B-1. Cellular In Vitro Assay for Determining Vasopressin Receptor Activity
(§2) The identification of agonists and antagonists of the V1a and V2 vasopressin receptors from humans, rats and dogs as well as the quantification of the activity of the compounds of the invention is carried out using recombinant cell lines. These cell lines originally derive from a hamster's ovary epithelial cell (Chinese Hamster Ovary, CHO K1, ATCC: American Type Culture Collection, Manassas, Va. 20108, USA). The test cell lines constitutively express the human, rat or dog V1a or V2 receptors. In case of the Gαq-coupled V1a receptors, cells are also stably transfected with a modified form of the calcium-sensitive photoproteins aequorin (human and rat V1a) or obelin (dog V1a), which, after reconstitution with the cofactor coelenterazine, emit light when there are increases in free calcium concentrations [Rizzuto R, Simpson A W, Brini M, Pozzan T, Nature 358, 325-327 (1992); Illarionov B A, Bondar V S, Illarionova V A, Vysotski E S, Gene 153 (2), 273-274 (1995)]. The resulting vasopressin receptor cells react to stimulation of the recombinantly expressed V1a receptors by intracellular release of calcium ions, which can be quantified by the resulting photoprotein luminescence. The Gs-coupled V2 receptors are stably transfected into cell lines expressing the gene for firefly luciferase under control of a CRE-responsible promoter. Activation of V2 receptors induces the activation of the CRE-responsive promoter via cAMP increase, thereby inducing the expression of firefly luciferase. The light emitted by photoproteins of V1a cell lines as well as the light emitted by firefly luciferase of V2 cell lines corresponds to the activation or inhibition of the respective vasopressin receptor. The bioluminescence of the cell lines is detected using a suitable luminometer [Milligan G, Marshall F, Rees S, Trends in Pharmacological Sciences 17, 235-237 (1996)].
Vasopressin V1a Receptor Cell Lines:
On the day before the assay, the cells are plated out in culture medium (DMEM/F12, 2% FCS, 2 mM glutamine, 10 mM HEPES, 5 μg/ml coelenterazine) in 384-well microtiter plates and kept in a cell incubator (96% humidity, 5% v/v CO2, 37° C.). On the day of the assay, test compounds in various concentrations are placed for 10 minutes in the wells of the microtiter plate before the agonist [Arg^8]-vasopressin at EC50 concentration is added. The resulting light signal is measured immediately in a luminometer.
(§3) Table 1A below lists individual IC50 values for the compounds of the invention (including racemic mixtures as well as separated enantiomers) that were obtained from cell lines transfected with the human V1a or V2 receptor: […]

human V2 receptor = molecular target: T2, human V2 receptor (Homo sapiens, UniProt P30518); assay: Cellular in vitro assay for determining vasopressin receptor activity (V2, CRE-luciferase); format: cell-based; settings: CHO cell line transfected with human V2 receptor; [Arg8]-vasopressin at EC50 concentration; read-out: IC50 hV2
T2 construct: expressed in transfected cells; host or cells: CHO K1 (ATCC) expressing firefly luciferase under a CRE-responsive promoter
Protocol: as §1, §2
Vasopressin V2 Receptor Cell Lines:
On the day before the assay, the cells are plated out in culture medium (DMEM/F12, 2% FCS, 2 mM glutamine, 10 mM HEPES) in 384-well microtiter plates and kept in a cell incubator (96% humidity, 5% v/v CO2, 37° C.). On the day of the assay, test compounds in various concentrations and the agonist [Arg^8]-vasopressin at EC50 concentration are added together to the wells, and plates are incubated for 3 hours in a cell incubator. Upon addition of the cell lysis reagent Triton™ and the substrate luciferin, luminescence of firefly luciferase is measured in a luminometer.
as §3

T2 sequence (P30518 whole entry): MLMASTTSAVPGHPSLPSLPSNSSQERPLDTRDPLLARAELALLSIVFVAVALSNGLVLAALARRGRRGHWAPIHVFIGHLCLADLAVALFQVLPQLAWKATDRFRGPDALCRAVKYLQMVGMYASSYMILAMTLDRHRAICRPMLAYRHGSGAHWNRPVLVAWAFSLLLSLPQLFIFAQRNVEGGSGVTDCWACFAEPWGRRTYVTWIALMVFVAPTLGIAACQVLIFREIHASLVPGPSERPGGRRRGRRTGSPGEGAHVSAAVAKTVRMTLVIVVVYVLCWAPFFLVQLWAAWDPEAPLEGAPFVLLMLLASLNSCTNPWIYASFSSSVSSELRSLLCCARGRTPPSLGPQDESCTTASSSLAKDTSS
T1 sequence (P37288 whole entry): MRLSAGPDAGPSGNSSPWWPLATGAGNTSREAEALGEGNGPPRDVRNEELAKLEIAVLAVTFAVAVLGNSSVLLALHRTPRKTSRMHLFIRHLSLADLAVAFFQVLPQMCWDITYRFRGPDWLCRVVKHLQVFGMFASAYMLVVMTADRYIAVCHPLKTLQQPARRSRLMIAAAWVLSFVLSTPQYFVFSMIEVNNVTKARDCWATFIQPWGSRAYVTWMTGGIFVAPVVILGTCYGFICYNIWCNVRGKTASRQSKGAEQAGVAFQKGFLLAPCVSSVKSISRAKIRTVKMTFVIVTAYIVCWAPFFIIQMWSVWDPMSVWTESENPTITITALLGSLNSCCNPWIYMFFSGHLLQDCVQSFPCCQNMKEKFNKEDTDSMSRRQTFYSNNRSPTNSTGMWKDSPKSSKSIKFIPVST

Row | SMILES | IC50 (human V1a receptor) | ratio IC50 hV2/hV1a (human V1a receptor) | IC50 (human V2 receptor)
1 | C[C@H](O)c1nc(Cn2nc(-c3ccc(Cl)cc3)n(C[C@H](O)C(F)(F)F)c2=O)nn1-c1ccccn1 [Example 14, 5-(4-Chlorophenyl)-2-({5-[(1S)-1-hydroxyethyl]-1-(pyridin-2-yl)-1H-1,2,4-triazol-3-yl}methyl)-4-[(2S)-3,3,3-trifluoro-2-hydroxypropyl]-2,4-dihydro-3H-1,2,4-triazol-3-one] | 6.45 nM | 10.2 | 65.5 nM
2 | C[C@H](O)c1nc(Cn2nc(-c3ccc(Cl)cc3)n(C[C@H](O)C(F)(F)F)c2=O)nn1-c1cccnn1 [Example 20, 5-(4-Chlorophenyl)-2-({5-[(1S)-1-hydroxyethyl]-1-(pyridazin-3-yl)-1H-1,2,4-triazol-3-yl}methyl)-4-[(25)-3,3,3-trifluoro-2-hydroxypropyl]-2,4-dihydro-3H-1,2,4-triazol-3-one] | 47.6 nM | 4.9 | 235 nM
3 | C[C@H](O)c1nc(Cn2nc(-c3ccc(Cl)cc3)n(C[C@H](O)C(F)(F)F)c2=O)nn1-c1cnccn1 [Example 19, 5-(4-Chlorophenyl)-2-({5-[(1S)-1-hydroxyethyl]-1-(pyrazin-2-yl)-1H-1,2,4-triazol-3-yl}methyl)-4-[(2S)-3,3,3-trifluoro-2-hydroxypropyl]-2,4-dihydro-3H-1,2,4-triazol-3-one] | 29.5 nM | 10.8 | 320 nM
4 | C[C@H](O)c1nc(Cn2nc(-c3ccc(Cl)cc3)n(C[C@H](O)C(F)(F)F)c2=O)nn1-c1ncccc1C(F)(F)F [Example 30, 5-(4-chlorophenyl)-2-({5-[(1S)-1-hydroxyethyl]-1-[3-(trifluoromethyl)pyridin-2-yl]-1H-1,2,4-triazol-3-yl}methyl)-4-[(2S)-3,3,3-trifluoro-2-hydroxypropyl]-2,4-dihydro-3H-1,2,4-triazol-3-one] | 3.3 nM | 14.9 | 48.5 nM
5 | CC(O)c1nc(Cn2nc(-c3ccc(Cl)cc3)n(C[C@H](O)C(F)(F)F)c2=O)nn1-c1cccnc1 (single isomer, unassigned) [Example 26] | 34.3 nM | 9.5 | 325 nM
6 | C[C@@H](O)c1nc(Cn2nc(-c3ccc(Cl)cc3)n(C[C@H](O)C(F)(F)F)c2=O)nn1-c1ncccc1F [Example 13, 5-(4-Chlorophenyl)-2-({1-(3-fluoropyridin-2-yl)-5-[(1R)-1-hydroxyethyl]-1H-1,2,4-triazol-3-yl}methyl)-4-[(2S)-3,3,3-trifluoro-2-hydroxypropyl]-2,4-dihydro-3H-1,2,4-triazol-3-one] | 6.05 nM | 6.4 | 38.7 nM
7 | C[C@@H](O)c1nc(Cn2nc(-c3ccc(Cl)cc3)n(C[C@H](O)C(F)(F)F)c2=O)nn1-c1ncccc1C(F)(F)F [Example 31, 5-(4-chlorophenyl)-2-({5-[(1R)-1-hydroxyethyl]-1-[3-(trifluoromethyl)pyridin-2-yl]-1H-1,2,4-triazol-3yl}methyl)-4-[(2S)-3,3,3-trifluoro-2-hydroxypropyl]-2,4-dihydro-3H-1,2,4-triazol-3-one] | 4.9 nM | 35.1 | 170 nM
8 | C[C@H](O)c1nc(Cn2nc(-c3ccc(Cl)cc3)n(C[C@H](O)C(F)(F)F)c2=O)nn1-c1ccncc1 [Example 18, 5-(4-Chlorophenyl)-2-({5-[(1S)-1-hydroxyethyl]-1-(pyridin-4-yl)-1H-1,2,4-triazol-3-yl}methyl)-4-[(2S)-3,3,3-trifluoro-2-hydroxypropyl]-2,4-dihydro-3H-1,2,4-triazol-3-one] | 28.6 nM | 7.0 | 199 nM
9 | C[C@@H](O)c1nc(Cn2nc(-c3ccc(Cl)cc3)n(C[C@H](O)C(F)(F)F)c2=O)nn1-c1cnccc1Cl [Example 1, 5-(4-Chlorophenyl)-2-({1-(4-chloropyridin-3-yl)-5-[(1R)-1-hydroxyethyl]-1H-1,2,4-triazol-3-yl}methyl)-4-[(2S)-3,3,3-trifluoro-2-hydroxypropyl]-2,4-dihydro-3H-1,2,4-triazol-3-one] | 0.49 nM | 32.6 | 16 nM
